ChEMBL document CHEMBL1201862, “PubChem BioAssay data set” (2004)
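Interpolation was linear, between the two tested concentrations surrounding the appropriate level; five concentrations were tested over 48 hours in 96-well plates. GI50 marks 50% less growth.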 Active and inactive are the calls of the source. Rule as the data show it: active = GI50 up to about 1.1 µM and inactive = higher.

Experiments:
Experiment in all cases: NCI anticancer screen, dose series, 48 h
OVCAR-5 = system: OVCAR-5
KM12 = system: KM12
OVCAR-8 = system: OVCAR-8
A498 = system: A498
HCT-116 = system: HCT-116
Malme-3M = system: Malme-3M
TK-10 = system: TK-10
ACHN = system: ACHN
SF-295 = system: SF-295
NCI-H23 = system: NCI-H23
UACC-62 = system: UACC-62
CCRF-CEM = system: CCRF-CEM
COLO 205 = system: COLO 205
HCC 2998 = system: HCC 2998
MDA-N = system: MDA-N
SK-MEL-28 = system: SK-MEL-28
RPMI-8226 = system: RPMI-8226
SF-539 = system: SF-539
BT-549 = system: BT-549

Measured: GI50

C[Si](C)(C)CCOCN(C(=O)C1=CCC2(CC1)OCCO2)c1ccccc1I
inactive: OVCAR-5 20 µM | KM12 18.7 µM | OVCAR-8 32.5 µM | A498 12.4 µM | HCT-116 14.1 µM | Malme-3M 35.7 µM | TK-10 27.6 µM | ACHN 22.6 µM | SF-295 15.5 µM | NCI-H23 18.6 µM | UACC-62 16.9 µM | CCRF-CEM 25.4 µM | COLO 205 37.4 µM | HCC 2998 21.1 µM | MDA-N 20.6 µM | SK-MEL-28 19.4 µM | RPMI-8226 11.9 µM | SF-539 22.1 µM

CC1(C)C=C(/C=N/Nc2ccc(Br)cc2)C(C#N)=C(O)C1(C#N)C#N
inactive: OVCAR-5 > 100 µM | KM12 29.9 µM | OVCAR-8 52.5 µM | HCT-116 32.2 µM | Malme-3M 89.7 µM | TK-10 83.6 µM | ACHN 33.3 µM | SF-295 > 100 µM | NCI-H23 46 µM | UACC-62 38.7 µM | CCRF-CEM 35.8 µM | COLO 205 19.8 µM | HCC 2998 24.5 µM | MDA-N 42.2 µM | SK-MEL-28 81.8 µM | RPMI-8226 38.5 µM | SF-539 55.2 µM

NC(=O)C(c1ccccc1)N1OC2C(=O)N(c3ccccc3)C(=O)C2C1c1c2ccccc2c(Cl)c2ccccc12 (stereo not given)
inactive: OVCAR-5 > 100 µM | KM12 > 100 µM | OVCAR-8 > 100 µM | HCT-116 > 100 µM | Malme-3M > 100 µM | BT-549 > 100 µM | ACHN > 100 µM | SF-295 > 100 µM | NCI-H23 > 100 µM | UACC-62 > 100 µM | CCRF-CEM 61.4 µM | COLO 205 > 100 µM | MDA-N > 100 µM | SK-MEL-28 > 100 µM | RPMI-8226 > 100 µM | SF-539 > 100 µM

CCOC(=O)c1nc2ccc(C(F)(F)F)cc2nc1Oc1ccc(C#N)cc1
inactive: KM12 23.6 µM | OVCAR-8 19.6 µM | A498 23.3 µM | HCT-116 48.5 µM | TK-10 30.1 µM | BT-549 18.8 µM | ACHN 29.9 µM | SF-295 14.8 µM | NCI-H23 40.3 µM | UACC-62 19.1 µM | CCRF-CEM > 100 µM | COLO 205 27.4 µM | HCC 2998 61.4 µM | SK-MEL-28 43.1 µM | RPMI-8226 > 100 µM | SF-539 19.5 µM

CC[C@H](CC[C@@H](C)[C@H]1CC[C@H]2[C@@H]3CC=C4C[C@@H](O)CC[C@]4(C)[C@H]3CC[C@]12C)C(C)C [BETA-SITOSTEROL]
inactive: OVCAR-5 > 100 µM | KM12 > 100 µM | OVCAR-8 > 100 µM | HCT-116 > 100 µM | Malme-3M > 100 µM | TK-10 > 100 µM | ACHN > 100 µM | SF-295 > 100 µM | NCI-H23 > 100 µM | CCRF-CEM > 100 µM | COLO 205 > 100 µM | HCC 2998 > 100 µM | MDA-N > 100 µM | SK-MEL-28 > 100 µM | RPMI-8226 > 100 µM | SF-539 > 100 µM

O=[N+]([O-])c1ccccc1S(=O)(=O)c1cc(Cl)cc2c1NCCC2
inactive: OVCAR-5 > 100 µM | KM12 85.9 µM | OVCAR-8 > 100 µM | A498 > 100 µM | HCT-116 41.7 µM | Malme-3M 25.8 µM | TK-10 > 100 µM | BT-549 26.8 µM | ACHN 56.6 µM | SF-295 52.2 µM | UACC-62 38.5 µM | CCRF-CEM 36.1 µM | COLO 205 33.6 µM | HCC 2998 20.1 µM | SK-MEL-28 62.8 µM | RPMI-8226 44.8 µM | SF-539 > 100 µM

CC(C)(/C=N/O)/[N+]([O-])=C/c1ccccc1
inactive: OVCAR-5 > 100 µM | KM12 > 100 µM | OVCAR-8 > 100 µM | HCT-116 > 100 µM | Malme-3M > 100 µM | TK-10 > 100 µM | ACHN > 100 µM | SF-295 > 100 µM | NCI-H23 > 100 µM | UACC-62 > 100 µM | COLO 205 > 100 µM | HCC 2998 > 100 µM | MDA-N > 100 µM | SK-MEL-28 > 100 µM | RPMI-8226 > 100 µM | SF-539 > 100 µM

O=S(=O)(O)c1ccc(/N=N/c2ccc(/N=N/c3c(O)ccc4ccccc34)c(S(=O)(=O)O)c2)cc1
inactive: OVCAR-5 > 100 µM | KM12 > 100 µM | OVCAR-8 > 100 µM | HCT-116 > 100 µM | Malme-3M > 100 µM | TK-10 > 100 µM | BT-549 > 100 µM | ACHN > 100 µM | SF-295 > 100 µM | NCI-H23 > 100 µM | UACC-62 > 100 µM | CCRF-CEM > 100 µM | COLO 205 > 100 µM | HCC 2998 > 100 µM | SK-MEL-28 > 100 µM | RPMI-8226 > 100 µM | SF-539 > 100 µM

O=[N+]([O-])c1ccc(Sc2c3ccccc3nc3ccccc23)cc1
inactive: OVCAR-5 > 100 µM | KM12 > 100 µM | OVCAR-8 > 100 µM | HCT-116 > 100 µM | Malme-3M > 100 µM | ACHN > 100 µM | SF-295 > 100 µM | NCI-H23 > 100 µM | UACC-62 > 100 µM | CCRF-CEM > 100 µM | COLO 205 > 100 µM | HCC 2998 > 100 µM | SK-MEL-28 > 100 µM | RPMI-8226 > 100 µM | SF-539 > 100 µM

CSC1=N/C(=C\c2ccc(Cl)cc2)C(=O)N1CN1CCOCC1
inactive: OVCAR-5 87.9 µM | KM12 85.7 µM | OVCAR-8 21.7 µM | A498 17.6 µM | HCT-116 27.5 µM | Malme-3M 52.2 µM | TK-10 27.5 µM | ACHN 31.3 µM | SF-295 > 100 µM | NCI-H23 66.8 µM | UACC-62 28.9 µM | CCRF-CEM 30.8 µM | COLO 205 28.9 µM | MDA-N 47.8 µM | SK-MEL-28 > 100 µM | RPMI-8226 19.3 µM

COc1ccc(/C=C/c2cc(O)cc(OC)c2)cc1
inactive: OVCAR-5 > 100 µM | KM12 40.9 µM | OVCAR-8 > 100 µM | A498 > 100 µM | HCT-116 > 100 µM | Malme-3M 86.3 µM | TK-10 > 100 µM | BT-549 22.9 µM | ACHN 19.8 µM | SF-295 75.9 µM | NCI-H23 > 100 µM | UACC-62 > 100 µM | COLO 205 > 100 µM | SK-MEL-28 > 100 µM | RPMI-8226 22.3 µM | SF-539 > 100 µM

COc1ccc(-c2cc(-c3ccc(Nc4ccnc5cc(C(F)(F)F)ccc45)cc3)nc(N)c2C#N)cc1
inactive: OVCAR-5 > 100 µM | KM12 86.9 µM | A498 > 100 µM | HCT-116 23.2 µM | Malme-3M > 100 µM | TK-10 > 100 µM | BT-549 46.2 µM | ACHN > 100 µM | SF-295 32 µM | NCI-H23 > 100 µM | UACC-62 40.6 µM | COLO 205 > 100 µM | HCC 2998 > 100 µM | SK-MEL-28 32.5 µM | RPMI-8226 > 100 µM | SF-539 34.6 µM

COC(=O)CNC(=O)CCSc1nnc(COc2ccc(Cl)cc2)n1-c1ccccc1
inactive: OVCAR-5 47.8 µM | KM12 34 µM | OVCAR-8 34.9 µM | A498 > 100 µM | HCT-116 37.5 µM | Malme-3M 25.8 µM | TK-10 17.5 µM | ACHN 34.4 µM | SF-295 58.5 µM | NCI-H23 45.6 µM | UACC-62 20.2 µM | CCRF-CEM 55.5 µM | COLO 205 32.1 µM | HCC 2998 42.9 µM | MDA-N 16.1 µM | SK-MEL-28 23.7 µM | SF-539 91.8 µM

ON=C(CC(O)(C(F)(F)Cl)C(F)(F)Cl)CC(O)(C(F)(F)Cl)C(F)(F)Cl
inactive: KM12 8.38 µM | OVCAR-8 6.9 µM | A498 2.87 µM | HCT-116 3.29 µM | Malme-3M 2.99 µM | TK-10 7.66 µM | ACHN 3.66 µM | SF-295 7.89 µM | NCI-H23 2.56 µM | UACC-62 3.46 µM | CCRF-CEM 5.56 µM | COLO 205 5.04 µM | HCC 2998 4.5 µM | SK-MEL-28 6.27 µM | RPMI-8226 2.7 µM | SF-539 2.07 µM

SCCCSCCSCCCSCCS
inactive: OVCAR-5 > 100 µM | KM12 > 100 µM | OVCAR-8 > 100 µM | HCT-116 > 100 µM | BT-549 > 100 µM | SF-295 > 100 µM | NCI-H23 85.9 µM | UACC-62 > 100 µM | CCRF-CEM 31.7 µM | COLO 205 > 100 µM | HCC 2998 > 100 µM | MDA-N > 100 µM | SK-MEL-28 > 100 µM | SF-539 > 100 µM

CCOC(=O)[C@@H]1C[C@H]1c1ccc(O)c(O)c1
inactive: OVCAR-5 > 100 µM | KM12 > 100 µM | OVCAR-8 37.9 µM | HCT-116 14.4 µM | Malme-3M 31.8 µM | TK-10 20.7 µM | BT-549 43.4 µM | ACHN 65.2 µM | SF-295 > 100 µM | NCI-H23 4.74 µM | UACC-62 17.1 µM | COLO 205 57.8 µM | HCC 2998 31.6 µM | MDA-N 12.7 µM | SK-MEL-28 25.4 µM | RPMI-8226 30.9 µM | SF-539 91 µM
